The values that follow come from paper PMC4406947, “CALM Regulates Clathrin-Coated Vesicle Size and Maturation by Directly Sensing and Driving Membrane Curvature” (Developmental Cell, 2015).

What is called Kd is the constant that tells how readily two partners part at equilibrium.

One test deals with T1, CALM ANTH(ΔH0) (Homo sapiens, UniProt Q13492).
T1 construct: gene PICALM; recombinant ANTH domain lacking the N-terminal amphipathic helix AH0 (residues 1-18); construct details in supplement; clone could be rat Picalm
T1 sequence (Q13492 19-289): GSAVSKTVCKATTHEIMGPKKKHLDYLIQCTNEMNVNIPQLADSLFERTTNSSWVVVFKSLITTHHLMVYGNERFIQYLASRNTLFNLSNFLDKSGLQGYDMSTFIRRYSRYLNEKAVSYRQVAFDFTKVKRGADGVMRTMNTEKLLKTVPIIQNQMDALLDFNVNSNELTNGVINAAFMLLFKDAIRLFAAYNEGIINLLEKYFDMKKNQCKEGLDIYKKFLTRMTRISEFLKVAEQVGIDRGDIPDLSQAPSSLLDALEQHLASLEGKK
Nature of the test: liposome-based SPR (BIAcore […]). Format: binding. To be noted: PtdIns4,5P2-containing liposomes, not free lipid; 170 mM salt. On the technique in general: Surface plasmon resonance follows binding to a sensor surface in real time, without labels.

The target in a further test is T2, CALM ANTH (CALM ANTH-WT).
T2 construct: gene PICALM; recombinant N-terminal ANTH domain including AH0, first 289 residues; construct details in supplement; clone could be rat Picalm (earlier ANTH constructs of this group)
The experiment in a line: liposome-based SPR (BIAcore […]). In kind it is binding, Homo sapiens. As to conditions: PtdIns4,5P2-containing liposomes, not free lipid; 170 mM salt.

Turning to PtdIns4,5P2, the Kd on CALM ANTH(ΔH0) turned out to be 11.5 ± 1.1 µM; on CALM ANTH (CALM ANTH-WT), 1.5 µM.
